Test: Stability of chlorhexidine in simplified formulations by HPLC-UV after storage at 60°C
Assay type: physicochemical
Conditions: result in words; formulations with arginine versus without, 60°C for 42 days
Procedure: The following simplified formulations were used for these studies: […]
The stability of the formulations was measured by HPLC-UV after storage at 60°C for 42 days. The formulations were stored in PET bottles with PP caps.
Compositions 1-4 include arginine as a stabilising agent. […] In particular, compositions 1-4 and compositions 5-7 differ only in the presence or absence of arginine.

**Q.** For `N=C(N)NCCCC(N)C(=O)O` (stereo not shown) [arginine, 2-amino-5-guanidinopentanoic acid], which “stability of the chlorhexidine” value is on record?
**A.** Its value is “improved the stability”.

— patent publication EP3697380B1, “ORAL CARE PREPARATIONS COMPRISING CHLORHEXIDINE AND ARGININE OR THEIR SALTS” (priority 2019, dated 2020)
